Consider 27 molecules from US20090105349A1, “ANDROGEN MODULATORS” (WARNER-LAMBERT COMPANY LLC, priority 2004, published 2009).

Experiment [1] addresses T1, hAR (human androgen receptor) (Homo sapiens, UniProt P10275).
T1 construct: made in house; host or cells: baculovirus/Sf9 insect cells (crude extract)
T1 sequence (P10275 1-920): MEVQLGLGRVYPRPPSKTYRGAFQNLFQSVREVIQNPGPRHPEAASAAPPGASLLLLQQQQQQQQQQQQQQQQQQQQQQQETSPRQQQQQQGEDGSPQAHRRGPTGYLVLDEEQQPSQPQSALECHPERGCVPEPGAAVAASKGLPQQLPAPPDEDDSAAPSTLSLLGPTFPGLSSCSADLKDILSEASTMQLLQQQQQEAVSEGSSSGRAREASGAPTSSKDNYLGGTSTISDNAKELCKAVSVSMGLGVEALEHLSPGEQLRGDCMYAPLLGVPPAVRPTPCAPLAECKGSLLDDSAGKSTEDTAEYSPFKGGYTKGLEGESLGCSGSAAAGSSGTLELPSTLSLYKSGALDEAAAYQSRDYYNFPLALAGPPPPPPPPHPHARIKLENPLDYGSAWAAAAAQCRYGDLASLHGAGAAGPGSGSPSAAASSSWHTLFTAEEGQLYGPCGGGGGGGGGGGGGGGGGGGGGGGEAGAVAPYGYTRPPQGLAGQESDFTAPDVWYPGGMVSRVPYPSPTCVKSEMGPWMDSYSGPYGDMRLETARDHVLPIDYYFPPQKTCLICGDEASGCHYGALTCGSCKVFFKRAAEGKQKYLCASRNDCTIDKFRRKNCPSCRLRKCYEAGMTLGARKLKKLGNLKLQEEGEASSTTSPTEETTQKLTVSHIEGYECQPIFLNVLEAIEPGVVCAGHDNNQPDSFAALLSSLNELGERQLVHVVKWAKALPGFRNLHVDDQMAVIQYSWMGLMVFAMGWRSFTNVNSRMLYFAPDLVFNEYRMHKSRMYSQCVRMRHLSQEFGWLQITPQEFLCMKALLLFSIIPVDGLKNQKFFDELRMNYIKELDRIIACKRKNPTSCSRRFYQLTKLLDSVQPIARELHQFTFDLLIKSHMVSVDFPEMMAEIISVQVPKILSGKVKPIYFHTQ
The experiment is described as follows: Competitive hAR binding assay with 3H-DHT tracer. The protocol:
The description below describes how the assay was carried out.
Competitive binding analysis was performed on baculovirus/Sf9 generated hAR extracts in the presence or absence of different concentrations of test agent and a fixed concentration of ^3H-dihydrotestosterone (3H-DHT) as tracer. […] Subsequently, the binding reactions are washed three times to completely remove excess unbound ^3H-DHT. hAR bound ^3H-DHT levels are determined in the presence of compounds (i.e. competitive binding) and compared to levels bound when no competitor is present (i.e. maximum binding). Compound binding affinity to the hAR is expressed as the concentration of compound at which one half of the maximum binding is inhibited.

Experiment [2] deals with T2, androgen receptor in MDA-MB453-MMTV clone 54-19 cells (Homo sapiens, UniProt P10275).
T2 sequence (P10275 1-920 Q868H): T1 sequence (P10275 1-920) with Q868H
The experiment in a line: AR antagonist cell assay (MMTV-luciferase reporter). In kind it is cell-based. The protocol: The compounds ability to antagonize the effects of androgen on the androgen receptor were determined in a whole cell assay as described immediately below.
This cell line is a stable transfected cell line with MDA-MB453 cell background (a human breast tumor cell line expressing androgen receptor). A MMTV minimal promoter containing ARE was first cloned in front of a firefly luciferase reporter gene. Then the cascade was cloned into transfection vector pUV120puro. […] Puromycin resistant stable cell line was selected.
Plating medium: DMEM (phenol red free), 10% charcoal treated HyClone serum, 1% L-glutamine
Assay medium: DMEM (phenol red free), 1% charcoal treated HyClone serum, 1% L-glutamine, and 1% penicillin/streptomycin
Assay procedure: • 1. Cells are maintained in culture medium, splitting cells when they reach 80-90% confluence • 2. To test compounds, 10,000 cells/well are plated to opaque 96 cell culture plate in 100 ul/well plating medium, culture for overnight at 37° C. in cell culture incubator • 3. […] Add 10 ul/well freshly prepared DHT (final concentration at […]) to each well, incubate at 37° C. for 17 hr (overnight) • 5.
The results are reported as the mean of multiple tests as described below (the numbers of tests are indicated in the footnote). N.D. denotes that the compound was not tested.
(In general: In a reporter assay the amount or activity of a reporter protein is the signal.)

Setting [3] is: read-out: AR Cell IC50; MDA-MB453-MMTV clone 54-19, inhibition of DHT induced luciferase, 17 hr; mean of multiple tests.
[4] abbreviates: baculovirus/Sf9 hAR extract, 1 nM 3H-DHT, one hour at 4° C, mean of multiple tests, read-out: AR Binding IC50.
Where [5] appears, read: MDA-MB453-MMTV clone 54-19, inhibition of DHT induced luciferase, 17 hr; mean of multiple tests; read-out: AR Cell IC50.

Positions count from the first letter of the chain named. Read-outs that look alike come from different tables or passages of the source.

The term IC50 denotes the point on the concentration scale where inhibition reaches its midpoint. As to `CSc1ccccc1Oc1ccc(C#N)c(Cl)c1` [Example 3, 2-Chloro-4-(2-methylsulfanyl-phenoxy)-benzonitrile], the values for the IC50 in experiment [1] and in experiment [2] (setting [3]) were 47 nM and less than 0.32 nM, respectively.

For the molecule `N#Cc1ccc(Oc2ccccc2C(N)=O)cc1Cl` [Example 8, 2-(3-Chloro-4-cyano-phenoxy)-benzamide], the IC50 was 222 nM in experiment [1] (setting [4]) and more than 1000 nM in experiment [2] (setting [5]).

Take `COc1ccccc1Oc1ccc(C#N)cc1Cl` [Example 10, 3-Chloro-4-(2-methoxy-phenoxy)-benzonitrile]: the results for the IC50 in experiment [1] and in experiment [2] (setting [5]) were 29 nM and 319 nM, respectively.

Consider `Cc1cc(C)c(Oc2ccc(C#N)cc2Cl)c(C)c1` [Example 15, 3-Chloro-(2,4,6-trimethyl-phenoxy)-benzonitrile], for which the results for the IC50 in experiment [1] and in experiment [2] (setting [5]) were 16 nM and more than 1000 nM, respectively.

Take `Cc1cccc(C)c1Oc1ccc(C#N)cc1Cl` [Example 16, 3-Chloro-4-(2,,6-dimethyl-phenoxy)-benzonitrile]: the figures for the IC50 in experiment [1] and in experiment [2] (setting [5]) were 16 nM and 161 nM, respectively.

As for `CCCc1ccccc1Oc1ccc(C#N)cc1Cl` [Example 17, 3-Chloro-4-(2-propyl-phenoxy)-benzonitrile], the IC50 came to 102 nM in experiment [1] (setting [4]) and 861 nM in experiment [2] (setting [5]).

With `COc1cccc(F)c1Oc1ccc(C#N)cc1Cl` [Example 19, 3-Chloro-4-(2-fluoro-6-methoxy-phenoxy)-benzonitrile], the IC50 in experiment [1] was determined as 28 nM; in experiment [2] (setting [3]), 52 nM.

On to `N#Cc1ccc(Oc2ccccc2C(F)(F)F)c(Cl)c1` [Example 20, 3-Chloro-4-(2-trifluoromethyl-phenoxy)-benzonitrile], for which the IC50 worked out at 253 nM in experiment [1] (setting [4]) and 51 nM in experiment [2] (setting [3]).

Regarding `CCc1ccccc1Oc1ccc(C#N)cc1Cl` [Example 23, 3-Chloro-(2-ethyl-phenoxy)-benzonitrile], the IC50 was 227 nM in experiment [1] (setting [4]) and more than 1000 nM in experiment [2] (setting [5]).

As to `N#Cc1ccc(Oc2ccc(F)cc2F)c(Cl)c1` [Example 25, 3-Chloro-4-(2,4-difluoro-phenoxy)-benzonitrile], the IC50 in experiment [1] (setting [4]) worked out at 371 nM; in experiment [2] (setting [5]) it was 792 nM.

As to `COc1cccc(OC)c1Oc1ccc(C#N)cc1Cl` [Example 26, 3-Chloro-4-(2,6-dimethoxy-phenoxy)-benzonitrile], the values for the IC50 in experiment [1] (setting [4]) and in experiment [2] (setting [3]) were 106 nM and 54 nM, respectively.

Turning to `CCOc1cc(C)ccc1Oc1ccc(C#N)cc1Cl` [Example 30, 3-Chloro-4-(2-ethoxy-4-methyl-phenoxy)-benzonitrile], the results for the IC50 in experiment [1] (setting [4]) and in experiment [2] (setting [5]) were 42 nM and 869 nM, respectively.

As for `N#Cc1ccc(Oc2cccc3c2CCCC3)cc1Cl` [Example 32, 2-Chloro-4-(5,6,7,8-tetrahydro-naphthalen-1-yloxy)-benzonitrile], the IC50 in experiment [1] worked out at 94 nM; in experiment [2] (setting [5]) it was 473 nM.

For `COc1ccc(C)cc1Oc1ccc(C#N)c(Cl)c1` [Example 33, 2-Chloro-4-(2-methoxy-5-methyl-phenoxy)-benzonitrile], the IC50 stood at 232 nM in experiment [1] (setting [4]) and 42 nM in experiment [2] (setting [3]).

For `CCc1cccc(Oc2ccc(C#N)c(Cl)c2)c1` [Example 34, 2-Chloro-4-(3-ethyl-phenoxy)-benzonitrile], the IC50 in experiment [1] (setting [4]) came out at 181 nM; in experiment [2] (setting [5]) it was 924 nM.

For the molecule `CCc1ccccc1Oc1ccc(C#N)c(Cl)c1` [Example 35, 2-Chloro-4-(2-ethyl-phenoxy)-benzonitrile], the concentration for half-maximal inhibition (IC50) amounted to 20 nM in experiment [1] and 360 nM in experiment [2] (setting [5]).

As to `N#Cc1ccc(Oc2ccc(F)cc2F)cc1Cl` [Example 36, 2-Chloro-4-(2,4-difluoro-phenoxy)-benzonitrile], the values for the IC50 in experiment [1] and in experiment [2] (setting [5]) were 52 nM and 144 nM, respectively.

On to `COc1cccc(Oc2ccc(C#N)c(Cl)c2)c1` [Example 37, 2-Chloro-4-(3-methoxy-phenoxy)-benzonitrile], for which the half-inhibitory concentration (IC50) in experiment [1] (setting [4]) stood at 114 nM; in experiment [2] (setting [5]) it was 139 nM.

Take `COc1cccc(OC)c1Oc1ccc(C#N)c(Cl)c1` [Example 38, 2-Chloro-4-(2,6-dimethoxy-phenoxy)-benzonitrile]: the IC50 in experiment [1] (setting [4]) came out at 249 nM; in experiment [2] (setting [3]), 19 nM.

`CC(C)c1ccccc1Oc1ccc(C#N)c(Cl)c1` [Example 39, 2-Chloro-4-(2-isopropyl-phenoxy)-benzonitrile]: the IC50 turned out to be 43 nM in experiment [1] and 254 nM in experiment [2] (setting [5]).

Take `N#Cc1ccc(Oc2cccc3ccccc23)cc1Cl` [Example 40, 2-Chloro-4-(naphthalen-1-yloxy)-benzonitrile]: the figures for the IC50 in experiment [1] and in experiment [2] (setting [3]) were 31 nM and 90 nM, respectively.

Take `Cc1cccc(Oc2ccc(C#N)c(Cl)c2)c1` [Example 41, 2-Chloro-4-m-tolyloxy-benzonitrile]: the figures for the IC50 in experiment [1] and in experiment [2] (setting [5]) were 86 nM and 120 nM, respectively.

As to `COc1ccccc1Oc1ccc(C#N)c(Cl)c1` [Example 42, 2-Chloro-4-(2-methoxy-phenoxy)-benzonitrile], the half-maximal inhibitory concentration (IC50) was found to be 2 nM in experiment [1] and 387 nM in experiment [2] (setting [5]).

As for `C=CCc1cccc(C)c1Oc1ccc(C#N)c(Cl)c1` [Example 44, 4-(2-Allyl-6-methyl-phenoxy)-2-chloro-benzonitrile], the figures for the IC50 in experiment [1] and in experiment [2] (setting [5]) were 79 nM and 282 nM, respectively.

With `Cc1ccc(Oc2ccc(C#N)c(Cl)c2)c(C)c1` [Example 45, 2-Chloro-4-(2,4-dimethyl-phenoxy)-benzonitrile], the IC50 was determined as 25 nM in experiment [1] and 721 nM in experiment [2] (setting [5]).

`N#CCCc1ccc(Oc2ccc(C#N)c(Cl)c2)cc1` [Example 46, 2-Chloro-4-[4-(2-cyano-ethyl)-phenoxy]-benzonitrile]: the IC50 in experiment [1] (setting [4]) turned out to be 304 nM; in experiment [2] (setting [5]), 197 nM.

For the molecule `COc1cc(C)ccc1Oc1ccc(C#N)c(Cl)c1` [Example 47, 2-Chloro-4-(2-methoxy-4-methyl-phenoxy)-benzonitrile], the half-maximal inhibitory concentration (IC50) was 4 nM in experiment [1] and more than 1000 nM in experiment [2] (setting [5]).
